Test results published in US20250032464A1, “SOLID DISPERSION, PREPARATION METHOD THEREFOR, AND SOLID FORMULATION CONTAINING SAME” (HAIHE BIOPHARMA CO., LTD., priority 2021, published 2025).
Where two headings read alike, the source gives them in different places.

Key:
[1] = for Equilibrium solubility, 24 h: 37° C.
Caco-2 cell model = settings: for The ratio of apparent permeability: human
in vitro = settings: human, Caco-2
P-gp = experiment: in vitro; settings: human, Caco-2

Equilibrium solubility, 24 h ([1]; Water) | solubility ([1]; media with different pH values) | Equilibrium solubility, 24 h ([1]; pH 1.2 simulated gastric fluid) | Equilibrium solubility, 24 h ([1]; pH 4.5 phosphate buffer solution) | Equilibrium solubility, 24 h ([1]; pH 6.8 simulated intestinal fluid) | in vivo bioavailability (after direct administration) | bioavailability (micronized compound A) | permeability characteristic (Caco-2 cell model; Caco-2) | The ratio of apparent permeability (Caco-2 cell model; Caco-2, 2 μM) | The ratio of apparent permeability (Caco-2 cell model; Caco-2, 10 μM) | The ratio of apparent permeability (Caco-2 cell model; Caco-2, 50 μM) | Papp A→B (in vitro) | Papp B→A (in vitro) | efflux ratio (P-gp) | SMILES
0.1 µg/mL | less than 1 μg/mL | 0.5 µg/mL | 0.1 µg/mL | 0.1 µg/mL | less than 1% | 3.3% | high permeability characteristic | 1.21 | 2.27 | 0.64 |  |  |  | Cn1cc(-c2cnc3cnn(S(=O)(=O)c4cnc5ccc(-c6cnn(C)c6)cn45)c3c2)cn1 [Compound A, 1-{(6-[(1-methyl)-4-pyrazolyl]-imidazo[1,2-a]pyridine)-3-sulfonyl}-6-[(1-methyl)-4-pyrazolyl]-1-hydro-pyrazolo[4,3-b]pyridine]
 |  |  |  |  |  |  |  |  |  |  | 13.7 ± 0.67 ×10⁻⁶ cm/s | 17 ± 0.32 ×10⁻⁶ cm/s | 1.24 | CC(C)NCC(O)COc1cccc2ccccc12 (centres unmarked) [Propranolol, propranolol]
 |  |  |  |  |  |  |  |  |  |  | 0.08 ± 0.01 ×10⁻⁶ cm/s | 12.5 ± 0.9 ×10⁻⁶ cm/s | 165 | C[C@H]1O[C@@H](O[C@H]2[C@@H](O)C[C@H](O[C@H]3[C@@H](O)C[C@H](O[C@H]4CC[C@@]5(C)[C@H](CC[C@@H]6[C@@H]5C[C@@H](O)[C@]5(C)[C@@H](C7=CC(=O)OC7)CC[C@]65O)C4)O[C@@H]3C)O[C@@H]2C)C[C@H](O)[C@@H]1O [Digoxin, digoxin]
